{"source": "patent US4031235A", "about": "“Insecticidal substituted acetate compounds” (Sumitomo Chemical Company, Limited, priority 1972, dated 1977)"}
{"tested_on": "Larvae of Mosquito (Culex pipiens)", "assay": "Insecticidal activity on larvae of mosquito (Experimental Example 2)", "format": "in vivo", "conditions": "24 h, read-out: LC50 (50% lethal concentration)", "protocol": "An emulsifiable concentrate was prepared by blending each of the compounds (1) to (300) of the present invention, xylol and Sorpol SM-200 (trade name; manufactured by Toho Chemical Co., Ltd.) in a proportion of 25%, 50% and 25% (by weight), respectively. 20 to 25 day-old rice plants after seeding were grown in pots and sprayed with each 300-fold dilute solution of the emulsifiable concentrates thus prepared and a 300-fold dilute solution of carbaryl 30% wettable powder diluted with water as a control commercial agent in an amount of 10 ml/pot in each case and then the pots were covered by a cylindrical metal net. 15 small brown planthoppers (Delphacodes striatella Fallen) per group were released in each of the pots treated with carbaryl wettable powder, and compound (1) to (21) and (102) to (110), while 15 green rice leafhopper (Nephotettix bipuntatus cincticeps Uhler) per group were released in each of the pots treated with the carbaryl wettable powder and compounds (22) to (101) and (111) to (300).\nOf the emulsifiable concentrates prepared in Experimental Example 1, each of those prepared from the compounds of Table 1 below was diluted with water to each of test concentrations and a 200 ml portion thereof was added to a 300 ml volume beaker. 30 larvae of mosquito per group were released in each of the beaker and allowed to stand for 1 day. Survival was observed and a LC50 (50% lethal concentration) was determined by calculating a percent killing in each case. As a control, lindane emulsifiable concentrate was used.", "units": {"LC50": "ng/mL"}}
{"smiles": "Cl[C@H]1[C@H](Cl)[C@@H](Cl)[C@@H](Cl)[C@H](Cl)[C@H]1Cl", "note": "[Lindane, lindane, reference compound]", "LC50": 220}
{"smiles": "C#CCc1ccc(COC(=O)C(CC)c2ccccc2)cc1", "note": "(stereo not drawn) [compound 10, 4'-Propargylbenzyl-α-ethylphenylacetate]", "LC50": 3}
{"smiles": "C=CCC1=C(C)C(OC(=O)C(CC)c2ccco2)CC1=O", "note": "(stereo not drawn) [compound 16, 2'-Allyl-3'-methyl-2'-cyclopentene-1'-one-4\"-yl-α-ethyl-2-furylacetate]", "LC50": 1.4}
{"smiles": "CCC(C(=O)OCc1coc(Cc2ccccc2)c1)c1ccc(C)cc1", "note": "(stereo not drawn) [compound 102, 5'-Benzyl-3'-furylmethyl-α-ethyl-4-methylphenylacetate]", "LC50": 9.5}
{"smiles": "Cc1ccc(C(C(=O)OCc2coc(Cc3ccccc3)c2)C(C)C)cc1", "note": "(stereo not drawn) [compound 103, 5'-Benzyl-3'-furylmethyl-α-isopropyl-4-methylphenylacetate]", "LC50": 9.2}
{"smiles": "CCC(C(=O)OCc1coc(Cc2ccccc2)c1)c1cccc(C)c1", "note": "(stereo not drawn) [compound 104, 5'-Benzyl-3'-furylmethyl-α-ethyl-3-methylphenylacetate]", "LC50": 12}
{"smiles": "Cc1cccc(C(C(=O)OCc2coc(Cc3ccccc3)c2)C(C)C)c1", "note": "(stereo not drawn) [compound 105, 5'-Benzyl-3'-furylmethyl-α-isopropyl-3-methylphenylacetate]", "LC50": 10.5}
{"smiles": "CCC(C(=O)OCc1coc(Cc2ccccc2)c1)c1ccccc1C", "note": "(stereo not drawn) [compound 110, 5'-Benzyl-3'-furylmethyl-α-ethyl-2-methylphenylacetate]", "LC50": 12.5}
{"smiles": "C=C(C)C(C(=O)OCc1csc(Cc2ccccc2)c1)c1ccc(C)cc1", "note": "(stereo not drawn) [compound 112]", "LC50": 4.6}
{"smiles": "C=C(C)C(C(=O)OCc1coc(Cc2ccco2)c1)c1ccc(C)cc1", "note": "(stereo not drawn) [compound 113, 5'-Furfuryl-3'-furylmethyl-α-isopropenyl-4-methylphenylacetate]", "LC50": 5.3}
{"smiles": "C=C(C)C(C(=O)OCc1coc(Oc2ccccc2)c1)c1ccc(C)cc1", "note": "(stereo not drawn) [compound 115, 5'-Phenoxy-3'-furylmethyl-α-isopropenyl-4-methyl phenylacetate]", "LC50": 5}
{"smiles": "C=C(C)C(C(=O)OCc1cccc(Oc2ccccc2)c1)c1cccc(Cl)c1", "note": "(stereo not drawn) [compound 120, 3'-Phenoxybenzyl-α-isopropenyl-3-chlorophenylacetate]", "LC50": 4}
{"smiles": "C=C(C)C(C(=O)OCc1cccc(Oc2ccccc2)c1)c1ccc(CC)cc1", "note": "(stereo not drawn) [compound 126, 3'-Phenoxybenzyl-α-isopropenyl-4-ethylphenylacetate]", "LC50": 5.6}
{"smiles": "C=C(C)C(C(=O)OCc1coc(Cc2ccccc2)c1)c1ccc(C)cc1", "note": "(stereo not drawn) [compound 128, 5'-Benzyl-3'-furylmethyl-α-isopropenyl-4-methylphenylacetate]", "LC50": 4.7}
{"smiles": "Cc1ccc(C(C)C(=O)OCc2coc(Cc3ccccc3)c2)cc1", "note": "(stereo not drawn) [compound 181]", "LC50": 82}
{"smiles": "Cc1ccc(C(C)C(=O)OCc2cccc(Oc3ccccc3)c2)cc1", "note": "(stereo not drawn) [compound 183]", "LC50": 88.5}
{"smiles": "CCc1ccc(C(C(=O)OCc2coc(Cc3ccccc3)c2)C(C)C)cc1", "note": "(stereo not drawn) [compound 214]", "LC50": 12.7}
{"smiles": "CCc1ccc(C(C(=O)OCc2cccc(Oc3ccccc3)c2)C(C)C)cc1", "note": "(stereo not drawn) [compound 215]", "LC50": 13.2}
{"smiles": "Cc1ccc(C(C(=O)OC(C#N)c2cccc(Oc3ccccc3)c2)C(C)C)cc1", "note": "(stereo not drawn) [compound 227]", "LC50": 1.9}
{"smiles": "CC(C)C(C(=O)OC(C#N)c1cccc(Oc2ccccc2)c1)c1ccc(Cl)cc1", "note": "(stereo not drawn) [compound 231]", "LC50": 1.4}
{"smiles": "CSc1ccc(C(C(=O)OCc2cccc(Oc3ccccc3)c2)C(C)C)cc1", "note": "(stereo not drawn) [compound 298]", "LC50": 9.7}
